From PubChem BioAssay AID1918938 (Molecular Pharmacology Branch, DTP, NCI, 2023)
Several values for one entry are separate records, joined by “and”; a condition that tells them apart may be missing. Equal entries are not always repeated.

Test system: 556581-035-R-J1-PDC complex spheroid viability
Assay: Anticancer human tumor 556581-035-R-J1-PDC patient-derived ovarian carcinoma cell line growth inhibition
Conditions: for viability, T/C: stronger effect = lower value
From the text: Multicellular complex tumor spheroid response to LSD1 Inhibitor Iadademstat in combination with a variety of drugs and investigational agents in selected tumor cell lines
The current study was undertaken to assess response to LSD1 inhibitors in combination with standard-of-care drugs and investigational agents in solid tumor complex spheroid models as well as in the K-562 leukemia. Complex spheroids include a stromal component modeled by human endothelial cells (HUVEC) and fibroblasts modeled by human mesenchymal stem cells (MSCs). The concentration ranges selected for each drug and investigational agent were based upon clinically achievable concentrations if the clinical Cmax of the agent was known.
Compounds. The drugs and investigational agents used in this study are listed on Table 1. All of the agents used, including staurosporine (NSC755774) and gemcitabine (NSC613327), were obtained from the Developmental Therapeutics Program, NCI. FDA-approved anticancer drugs are available from the NCI at http://dtp.nci.nih.gov/branches/dscb/oncology_drugset_explanation.html. Drugs and investigational agents were >95% pure by proton nuclear magnetic resonance (NMR) and liquid chromatography/mass spectrometry (LC/MS). Stock solutions were prepared at 400x in DMSO, stored at -70 degrees C, and diluted in fresh medium prior to their use. The final concentration of DMSO in cell culture wells never exceeded 0.25% (v/v). The FDA-approved anticancer drug set is available from the Developmental Therapeutics Program at https://dtp.cancer.gov/organization/dscb/obtaining/available_plates.htm. All drugs and investigational agents were tested over a range starting from a high concentration at or near the clinical Cmax and decreasing in half-log increments. If the clinical Cmax for an agent had not been determined, the highest concentration tested was 10 microM.
Cell Lines. The patient-derived cancer cell (PDC) lines: 292921-168-R-J2-PDC, K24384-001-R-PDC, and 521955-158-R2-J5-PDC pancreatic carcinomas, 556581-035-R-J1 ovarian carcinoma, 324938-238-R-J1-PDC, 855422-203-R-J1-PDC and 883617-216-R-J1-PDC urothelial bladder carcinomas, 743489-274-T-PDC renal cell carcinoma, 138582-R-J1 Merkel cell tumor, K60290-347-R-J1 and K57222-313-R-J1-PDC glioblastomas, 653999-131-R-J2-PDC, LG0703-F948-PDC, and 349418-098-R-PDC non-small cell lung carcinomas, 885512-296-R-J2-PDC, 171881-019-R-J1-PDC breast carcinomas and 186277-243-T-J2-PDC and 233499-124-R-J2-PDC colon carcinomas were obtained from the NCI Patient-Derived Models Repository (PDMR, https://pdmr.cancer.gov). The established cell lines NCI/ADR-RES (RRID:CVCL_14520 and OVCAR-5 (RRID:CVCL_1628) ovarian carcinomas, 786-O (RRID:CVCL_1051) and A498 (RRID:CVCL_A498) renal cell carcinoma, NCI-H211 (ATCC, cat. CRL-5824; RRID:CVCL_1529), NCI-H196 (ATCC, cat. CRL-5823, RRID:CVCL_1509), SW 1271 (ATCC, cat. CRL-2177, RRID:CVCL_1716) and NCI-H1876 (ATCC, cat. CRL-5902, RRID:CVCL_1503) small cell lung carcinomas, MDA-MB-231 (RRID:CVCL_0062) and MDA-MB-468 (RRID:CVCL_0419)breast carcinomas (10-12). Pooled donor human umbilical vein endothelial cells (HUVEC, Lonza, cat. CC-2519) and human mesenchymal stem cells (hMSC, Lonza, cat. PT-2501) were purchased from Lonza (Walkersville, MD).
Cell Culture. All cells were maintained in an incubator at 37 degrees C and 5% CO2 with 95% humidity. The PDC lines were cultured according to standard operating procedures established by the NCI PDMR (https://pdmr.cancer.gov). Briefly all PDCs were thawed and cultured in Matrigel-coated flasks prepared with a working solution of 1X Ham's F-12 nutrient mix, without supplementation (Invitrogen, Waltham, MA, cat. 11765054), 100 U/mL penicillin-streptomycin (Invitrogen, cat. 15140122), and 2.5% Matrigel (Corning Inc., Corning, NY, cat. 354248) for the first three passages. […]

[1] = curve of first compound, second compound 0.1 µM
[2] = curve of first compound, second compound 0.316 µM
[3] = curve of first compound, second compound 1 µM
[4] = curve of first compound, second compound 3.16 µM
[5] = curve of first compound, second compound 10 µM
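Note: spheroids exposed to agents for seven days.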
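Throughout, for viability, T/C: 100% = DMSO vehicle control wells.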

Q: How did the viability, T/C (compound 0.0316 µM) turn out when `COc1ccc([C@@H](O)c2cc(-c3ncnc4cc(N5CCOCC5)ccc34)c(F)cc2Cl)nn1` was run?
A: Its viability, T/C is 91.9% and 89.7%.

Q: What about the viability, T/C (compound 0.1 µM) of the same compound?
A: Its viability, T/C is 83.5% and 83.2%.

Q: What about the viability, T/C (compound 0.316 µM) of the same compound?
A: Its viability, T/C is 66.5% and 63.4%.

Q: And the viability, T/C (compound 1 µM)?
A: Its viability, T/C is 50.3% and 48.7%.

Q: What about the viability, T/C (compound 3.16 µM) of the same compound?
A: The viability, T/C was 36.8% and 42.1%.

Q: What about the viability, T/C (compound 10 µM) of the same compound?
A: Its viability, T/C is 29.6% and 27.5%.

Q: What about the IC50 (curve of compound) of the same compound?
A: Its IC50 is 993 nM and 1070 nM.

Q: Which results are given for `COc1ccc([C@@H](O)c2cc(-c3ncnc4cc(N5CCOCC5)ccc34)c(F)cc2Cl)nn1` + NC1CC1c1ccc(-c2cccc(O)c2)cc1?
A: IC50 [1]: 853 nM; IC50 [2]: 932 nM; IC50 [3]: 1000 nM; IC50 [4]: 621 nM; IC50 [5]: 1050 nM; viability, T/C (second compound 0.1 µM, first compound 0.0316 µM): 102%; viability, T/C (second compound 0.1 µM, first compound 0.1 µM): 87%; viability, T/C (second compound 0.1 µM, first compound 0.316 µM): 68.2%; viability, T/C (second compound 0.1 µM, first compound 1 µM): 46.3%; viability, T/C (second compound 0.1 µM, first compound 3.16 µM): 34.5%; viability, T/C (second compound 0.1 µM, first compound 10 µM): 26.9%; viability, T/C (second compound 0.316 µM, first compound 0.0316 µM): 85.2%; viability, T/C (second compound 0.316 µM, first compound 0.1 µM): 75.9%; viability, T/C (second compound 0.316 µM, first compound 0.316 µM): 62.7%; viability, T/C (second compound 0.316 µM, first compound 1 µM): 48.4%; viability, T/C (second compound 0.316 µM, first compound 3.16 µM): 37.9%; viability, T/C (second compound 0.316 µM, first compound 10 µM): 27.3%; viability, T/C (second compound 1 µM, first compound 0.0316 µM): 82.5%; viability, T/C (second compound 1 µM, first compound 0.1 µM): 79.8%; viability, T/C (second compound 1 µM, first compound 0.316 µM): 55.1%; viability, T/C (second compound 1 µM, first compound 1 µM): 52.6%; viability, T/C (second compound 1 µM, first compound 3.16 µM): 38.7%; viability, T/C (second compound 1 µM, first compound 10 µM): 25.3%; viability, T/C (second compound 3.16 µM, first compound 0.0316 µM): 82.8%; viability, T/C (second compound 3.16 µM, first compound 0.1 µM): 84.2%; viability, T/C (second compound 3.16 µM, first compound 0.316 µM): 64.5%; viability, T/C (second compound 3.16 µM, first compound 1 µM): 39.7%; viability, T/C (second compound 3.16 µM, first compound 3.16 µM): 34%; viability, T/C (second compound 3.16 µM, first compound 10 µM): 30.1%; viability, T/C (second compound 10 µM, first compound 0.0316 µM): 97.4%; viability, T/C (second compound 10 µM, first compound 0.1 µM): 79.6%; viability, T/C (second compound 10 µM, first compound 0.316 µM): 64.8%; viability, T/C (second compound 10 µM, first compound 1 µM): 48.5%; viability, T/C (second compound 10 µM, first compound 3.16 µM): 41.3%; viability, T/C (second compound 10 µM, first compound 10 µM): 24.4%

Q: Which results are given for `O=C(C=Cc1cccc(S(=O)(=O)Nc2ccccc2)c1)NO` + NC1CCC(NC2CC2c2ccccc2)CC1?
A: IC50 [1]: 108 nM; IC50 [2]: 87 nM; IC50 [3]: 76.3 nM; IC50 [4]: 92.8 nM; IC50 [5]: 39.6 nM; viability, T/C (second compound 0.1 µM, first compound 0.00949 µM): 85.6%; viability, T/C (second compound 0.1 µM, first compound 0.03 µM): 78.4%; viability, T/C (second compound 0.1 µM, first compound 0.0949 µM): 51.1%; viability, T/C (second compound 0.1 µM, first compound 0.3 µM): 26.1%; viability, T/C (second compound 0.1 µM, first compound 0.949 µM): 1.81%; viability, T/C (second compound 0.1 µM, first compound 3 µM): 0.24%; viability, T/C (second compound 0.316 µM, first compound 0.00949 µM): 87.7%; viability, T/C (second compound 0.316 µM, first compound 0.03 µM): 74.3%; viability, T/C (second compound 0.316 µM, first compound 0.0949 µM): 42.9%; viability, T/C (second compound 0.316 µM, first compound 0.3 µM): 31.7%; viability, T/C (second compound 0.316 µM, first compound 0.949 µM): 3.05%; viability, T/C (second compound 0.316 µM, first compound 3 µM): 0.34%; viability, T/C (second compound 1 µM, first compound 0.00949 µM): 97.2%; viability, T/C (second compound 1 µM, first compound 0.03 µM): 65.7%; viability, T/C (second compound 1 µM, first compound 0.0949 µM): 50.4%; viability, T/C (second compound 1 µM, first compound 0.3 µM): 24.6%; viability, T/C (second compound 1 µM, first compound 0.949 µM): 2.56%; viability, T/C (second compound 1 µM, first compound 3 µM): 0.21%; viability, T/C (second compound 3.16 µM, first compound 0.00949 µM): 77.9%; viability, T/C (second compound 3.16 µM, first compound 0.03 µM): 73.1%; viability, T/C (second compound 3.16 µM, first compound 0.0949 µM): 47.9%; viability, T/C (second compound 3.16 µM, first compound 0.3 µM): 22%; viability, T/C (second compound 3.16 µM, first compound 0.949 µM): 2.44%; viability, T/C (second compound 3.16 µM, first compound 3 µM): 0.16%; viability, T/C (second compound 10 µM, first compound 0.00949 µM): 74.2%; viability, T/C (second compound 10 µM, first compound 0.03 µM): 51.7%; viability, T/C (second compound 10 µM, first compound 0.0949 µM): 37.6%; viability, T/C (second compound 10 µM, first compound 0.3 µM): 23%; viability, T/C (second compound 10 µM, first compound 0.949 µM): 1.28%; viability, T/C (second compound 10 µM, first compound 3 µM): 0.28%
